Laboratory results as given in PubChem BioAssay AID1918936 (Molecular Pharmacology Branch, DTP, NCI, 2023).
“And” between values parts separate entries of the source, which are not always exact repeats. Equal values may be shown once.

Test system: 349418-098-R-PDC complex spheroid viability
Experiment: Anticancer human tumor 349418-098-R-PDC patient-derived lung adenocarcinoma cell line growth inhibition
Settings: for viability, T/C: stronger effect = lower value
Outline: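 Drug combinations with the LSD1 inhibitor iadademstat tested on tumor cells co-cultured as spheroids with endothelial cells and mesenchymal stem cells. Concentrations descended in half-log increments from clinical Cmax or 10 microM.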

[1] = curve of first compound, second compound 0.1 µM
[2] = curve of first compound, second compound 0.316 µM
[3] = curve of first compound, second compound 1 µM
[4] = curve of first compound, second compound 3.16 µM
[5] = curve of first compound, second compound 10 µM
[6] = second compound 0.1 µM, first compound 0.00949 µM
[7] = second compound 0.1 µM, first compound 0.03 µM
[8] = second compound 0.1 µM, first compound 0.0949 µM
[9] = second compound 0.1 µM, first compound 0.3 µM
[10] = second compound 0.1 µM, first compound 0.949 µM
[11] = second compound 0.1 µM, first compound 3 µM
[12] = second compound 0.316 µM, first compound 0.00949 µM
[13] = second compound 0.316 µM, first compound 0.03 µM
[14] = second compound 0.316 µM, first compound 0.0949 µM
[15] = second compound 0.316 µM, first compound 0.3 µM
[16] = second compound 0.316 µM, first compound 0.949 µM
[17] = second compound 0.316 µM, first compound 3 µM
[18] = second compound 1 µM, first compound 0.00949 µM
[19] = second compound 1 µM, first compound 0.03 µM
[20] = second compound 1 µM, first compound 0.0949 µM
[21] = second compound 1 µM, first compound 0.3 µM
[22] = second compound 1 µM, first compound 0.949 µM
[23] = second compound 1 µM, first compound 3 µM
[24] = second compound 3.16 µM, first compound 0.00949 µM
[25] = second compound 3.16 µM, first compound 0.03 µM
[26] = second compound 3.16 µM, first compound 0.0949 µM
[27] = second compound 3.16 µM, first compound 0.3 µM
[28] = second compound 3.16 µM, first compound 0.949 µM
[29] = second compound 3.16 µM, first compound 3 µM
[30] = second compound 10 µM, first compound 0.00949 µM
[31] = second compound 10 µM, first compound 0.03 µM
[32] = second compound 10 µM, first compound 0.0949 µM
[33] = second compound 10 µM, first compound 0.3 µM
[34] = second compound 10 µM, first compound 0.949 µM
[35] = second compound 10 µM, first compound 3 µM
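Also: spheroids exposed to agents for seven days before readout.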
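For viability, T/C in this document: 100% = DMSO vehicle control wells.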

| Compound | IC50 [1] | IC50 [2] | IC50 [3] | IC50 [4] | IC50 [5] | viability, T/C [6] | viability, T/C [7] | viability, T/C [8] | viability, T/C [9] | viability, T/C [10] | viability, T/C [11] | viability, T/C [12] | viability, T/C [13] | viability, T/C [14] | viability, T/C [15] | viability, T/C [16] | viability, T/C [17] | viability, T/C [18] | viability, T/C [19] | viability, T/C [20] | also measured |
| --- | --- | --- | --- | --- | --- | --- | --- | --- | --- | --- | --- | --- | --- | --- | --- | --- | --- | --- | --- | --- | --- |
| COc1cc(C2c3cc4c(cc3C(OC3OC5COC(C)OC5C(O)C3O)C3COC(=O)C23)OCO4)cc(OC)c1O (stereo not given) + NC1CC1c1ccc(-c2cccc(O)c2)cc1 | 61.1 nM | 62.7 nM | 67.3 nM | 57.1 nM | 35 nM | 108% | 86.4% | 27.3% | 7.24% | 3.83% | 3.5% | 114% | 89.4% | 27.7% | 7.71% | 3.95% | 2.97% | 97.6% | 92.7% | 31.8% | viability, T/C [21]: 6.96%; viability, T/C [22]: 3.37%; viability, T/C [23]: 2.89%; viability, T/C [24]: 114%; viability, T/C [25]: 83.5%; viability, T/C [26]: 23.5%; viability, T/C [27]: 7.14%; viability, T/C [28]: 3.98%; viability, T/C [29]: 3.63%; viability, T/C [30]: 95.6%; viability, T/C [31]: 55.4%; viability, T/C [32]: 14.7%; viability, T/C [33]: 5.55%; viability, T/C [34]: 3.81%; viability, T/C [35]: 3.47% |
| CC1COCCN1c1cc(C2(S(C)(=N)=O)CC2)nc(-c2ccnc3[nH]ccc23)n1 (stereo not given) | – | – | – | – | – | – | – | – | – | – | – | – | – | – | – | – | – | – | – | – | viability, T/C (compound 0.0316 µM): 106% and 107%; viability, T/C (compound 0.1 µM): 91.2% and 108%; viability, T/C (compound 0.316 µM): 57% and 96.7%; viability, T/C (compound 1 µM): 14.8% and 49.8%; viability, T/C (compound 3.16 µM): 10.1% and 11.9%; viability, T/C (compound 10 µM): 10.6% and 11.5%; IC50 (curve of compound): 368 nM and 977 nM |
| NC1CCC(NC2CC2c2ccccc2)CC1 (stereo not given) | – | – | – | – | – | – | – | – | – | – | – | – | – | – | – | – | – | – | – | – | viability, T/C (compound 0.316 µM): 106% (2×) and 102%; viability, T/C (compound 3.16 µM): 103% [middle of 25 runs]; IC50 (compound alone, run of 01/18/2022): > 10000 nM |
| CCN(c1cc(-c2ccc(CN3CCOCC3)cc2)cc(C(=O)NCc2c(C)cc(C)[nH]c2=O)c1C)C1CCOCC1 + NC1CCC(NC2CC2c2ccccc2)CC1 | > 3000 nM | > 3000 nM | > 3000 nM | > 3000 nM | 640 nM | 107% | 93.5% | 82.9% | 70.5% | 59.3% | 60% | 99.1% | 105% | 90.1% | 77.5% | 69.3% | 62.2% | 106% | 88.7% | 98% | viability, T/C [21]: 75.6%; viability, T/C [22]: 75.3%; viability, T/C [23]: 57%; viability, T/C [24]: 106%; viability, T/C [25]: 87.6%; viability, T/C [26]: 81%; viability, T/C [27]: 68.3%; viability, T/C [28]: 55.6%; viability, T/C [29]: 59.5%; viability, T/C [30]: 79%; viability, T/C [31]: 91.2%; viability, T/C [32]: 64.9%; viability, T/C [33]: 59.7%; viability, T/C [34]: 47.4%; viability, T/C [35]: 34.5% |
